Assay results reported in PubChem BioAssay AID1963976 (Molecular Pharmacology Branch, DTP, NCI, 2024).

Test system: 435261-313-R-J1-PDC tumor spheroid viability
Experiment: Anticancer human tumor 435261-313-R-J1-PDC patient-derived colon adenocarcinoma cell line growth inhibition [PI3K]
Conditions: spheroids with HUVEC and MSC; for IC50: curve of first compound; for viability, T/C: stronger effect = lower value
Method in brief: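 Targeted small molecules plus PI3K inhibitors, half-log dose series from Cmax (default top 10 microM), were applied to heterotypic spheroids of cancer cells with HUVEC and MSCs. Viability indicated growth inhibition.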

[1] = second compound 0.00316 µM, first compound 0.0316 µM
[2] = second compound 0.00316 µM, first compound 0.1 µM
[3] = second compound 0.00316 µM, first compound 0.316 µM
[4] = second compound 0.00316 µM, first compound 1 µM
[5] = second compound 0.00316 µM, first compound 3.16 µM
[6] = second compound 0.00316 µM, first compound 10 µM
[7] = second compound 0.01 µM, first compound 0.0316 µM
[8] = second compound 0.01 µM, first compound 0.1 µM
[9] = second compound 0.01 µM, first compound 0.316 µM
[10] = second compound 0.01 µM, first compound 1 µM
[11] = second compound 0.01 µM, first compound 3.16 µM
[12] = second compound 0.01 µM, first compound 10 µM
[13] = second compound 0.0316 µM, first compound 0.0316 µM
[14] = second compound 0.0316 µM, first compound 0.1 µM
[15] = second compound 0.0316 µM, first compound 0.316 µM
[16] = second compound 0.0316 µM, first compound 1 µM
[17] = second compound 0.0316 µM, first compound 3.16 µM
[18] = second compound 0.0316 µM, first compound 10 µM
[19] = second compound 0.1 µM, first compound 0.0316 µM
[20] = second compound 0.1 µM, first compound 0.1 µM
[21] = second compound 0.1 µM, first compound 0.316 µM
[22] = second compound 0.1 µM, first compound 1 µM
[23] = second compound 0.1 µM, first compound 3.16 µM
[24] = second compound 0.1 µM, first compound 10 µM
[25] = second compound 0.316 µM, first compound 0.0316 µM
[26] = second compound 0.316 µM, first compound 0.1 µM
[27] = second compound 0.316 µM, first compound 0.316 µM
[28] = second compound 0.316 µM, first compound 1 µM
[29] = second compound 0.316 µM, first compound 3.16 µM
[30] = second compound 0.316 µM, first compound 10 µM
[31] = second compound 1 µM, first compound 0.0316 µM
[32] = second compound 1 µM, first compound 0.1 µM
[33] = second compound 1 µM, first compound 0.316 µM
[34] = second compound 1 µM, first compound 1 µM
[35] = second compound 1 µM, first compound 3.16 µM
[36] = second compound 1 µM, first compound 10 µM
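Note: spheroids exposed to compounds for 7 days.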

Work on `C#Cc1c(F)ccc2cc(O)cc(-c3ncc4c(N5CC6CCC(C5)N6)nc(OCC56CCCN5CC(F)C6)nc4c3F)c12` (stereo unspecified) + CC(Nc1ccc2c(c1)OCCn1cc(N3C(=O)OCC3C(F)F)nc1-2)C(N)=O yielded an IC50 (second compound 0.00316 µM) of 3730 nM, an IC50 (second compound 0.01 µM) of 2040 nM and an IC50 (second compound 0.0316 µM) of 1920 nM. For the same compound, the IC50 (second compound 0.1 µM) was 85.9 nM, the IC50 (second compound 0.316 µM) was less than 31.6 nM and the IC50 (second compound 1 µM) was less than 31.6 nM. For the same compound, the viability, T/C [1] was 73.9%, the viability, T/C [2] was 91.2% and the viability, T/C [3] was 85.6%. It also gave a viability, T/C [4] of 98.2%, a viability, T/C [5] of 54.1% and a viability, T/C [6] of 25.7%. The viability, T/C [7] was 74.4%, the viability, T/C [8] was 93.9% and the viability, T/C [9] was 90.7%. For the same compound, the viability, T/C [10] was 65.8%, the viability, T/C [11] was 41.1% and the viability, T/C [12] was 28.8%. The viability, T/C [13] was 54.5%, the viability, T/C [14] was 65.7% and the viability, T/C [15] was 66.2%. It also gave a viability, T/C [16] of 76.5%, a viability, T/C [17] of 38.1% and a viability, T/C [18] of 13.8%. For the same compound, the viability, T/C [19] was 43.9%, the viability, T/C [20] was 57% and the viability, T/C [21] was 47.4%. The viability, T/C [22] was 33.2%, the viability, T/C [23] was 22.6% and the viability, T/C [24] was 12.3%. For the same compound, the viability, T/C [25] was 21.7%, the viability, T/C [26] was 21.6% and the viability, T/C [27] was 26.5%. It also gave a viability, T/C [28] of 17.5%, a viability, T/C [29] of 15.1% and a viability, T/C [30] of 7.18%. For the same compound, the viability, T/C [31] was 18.9%, the viability, T/C [32] was 14.5% and the viability, T/C [33] was 13.1%. For the same compound, the viability, T/C [34] was 12%, the viability, T/C [35] was 7.99% and the viability, T/C [36] was 3.34%.
Compound `C=CC(=O)N1CCN(c2nc(=O)n(-c3c(C)ccnc3C(C)C)c3nc(-c4c(O)cccc4F)c(F)cc23)C(C)C1` (stereo unspecified) + CC(Nc1ccc2c(c1)OCCn1cc(N3C(=O)OCC3C(F)F)nc1-2)C(N)=O has an IC50 (second compound 0.00316 µM) greater than 10000 nM, an IC50 (second compound 0.01 µM) greater than 10000 nM and an IC50 (second compound 0.0316 µM) greater than 10000 nM. The IC50 (second compound 0.1 µM) was less than 31.6 nM, the IC50 (second compound 0.316 µM) was less than 31.6 nM and the IC50 (second compound 1 µM) was less than 31.6 nM. For the same compound, the viability, T/C [1] was 83.2%, the viability, T/C [2] was 81.4% and the viability, T/C [3] was 111%. For the same compound, the viability, T/C [4] was 126%, the viability, T/C [5] was 117% and the viability, T/C [6] was 120%. The viability, T/C [7] was 99.2%, the viability, T/C [8] was 88.4% and the viability, T/C [9] was 95.1%. The viability, T/C [10] was 89.5%, the viability, T/C [11] was 91.7% and the viability, T/C [12] was 111%. It also gave a viability, T/C [13] of 70.7%, a viability, T/C [14] of 78.6% and a viability, T/C [15] of 71.5%. For the same compound, the viability, T/C [16] was 70.2%, the viability, T/C [17] was 87.4% and the viability, T/C [18] was 101%. It also gave a viability, T/C [19] of 49.7%, a viability, T/C [20] of 42.6% and a viability, T/C [21] of 45.5%. The viability, T/C [22] was 37.9%, the viability, T/C [23] was 60.9% and the viability, T/C [24] was 54.5%. The viability, T/C [25] was 20.8%, the viability, T/C [26] was 22% and the viability, T/C [27] was 27%. The viability, T/C [28] was 22.8%, the viability, T/C [29] was 25.5% and the viability, T/C [30] was 21.1%. It also gave a viability, T/C [31] of 20.2%, a viability, T/C [32] of 16.5% and a viability, T/C [33] of 18.1%. The viability, T/C [34] was 20.4%, the viability, T/C [35] was 14.9% and the viability, T/C [36] was 17.9%.
For `CC(Cn1ccc(-c2ccc(C#N)c(Cl)c2)n1)NC(=O)c1cc(C(C)O)[nH]n1` (stereo unspecified) + CC(Nc1ccc2c(c1)OCCn1cc(N3C(=O)OCC3C(F)F)nc1-2)C(N)=O, the IC50 (second compound 0.00316 µM) was greater than 10000 nM, the IC50 (second compound 0.01 µM) was greater than 10000 nM and the IC50 (second compound 0.0316 µM) was greater than 10000 nM. It also gave an IC50 (second compound 0.1 µM) of less than 31.6 nM, an IC50 (second compound 0.316 µM) of less than 31.6 nM and an IC50 (second compound 1 µM) of less than 31.6 nM. It also gave a viability, T/C [1] of 75.6%, a viability, T/C [2] of 79.1% and a viability, T/C [3] of 93.8%. The viability, T/C [4] was 106%, the viability, T/C [5] was 94.3% and the viability, T/C [6] was 106%. For the same compound, the viability, T/C [7] was 53.1%, the viability, T/C [8] was 90.6% and the viability, T/C [9] was 105%. The viability, T/C [10] was 106%, the viability, T/C [11] was 82.4% and the viability, T/C [12] was 95.1%. It also gave a viability, T/C [13] of 74.5%, a viability, T/C [14] of 78.5% and a viability, T/C [15] of 93%. It also gave a viability, T/C [16] of 77.4%, a viability, T/C [17] of 95.9% and a viability, T/C [18] of 86.2%. The viability, T/C [19] was 41.5%, the viability, T/C [20] was 54.3% and the viability, T/C [21] was 40.1%. For the same compound, the viability, T/C [22] was 44%, the viability, T/C [23] was 46.2% and the viability, T/C [24] was 53.8%. The viability, T/C [25] was 28.6%, the viability, T/C [26] was 24.6% and the viability, T/C [27] was 20.2%. It also gave a viability, T/C [28] of 21.7%, a viability, T/C [29] of 25.9% and a viability, T/C [30] of 27.5%. The viability, T/C [31] was 17.1%, the viability, T/C [32] was 17% and the viability, T/C [33] was 18.3%. For the same compound, the viability, T/C [34] was 19.2%, the viability, T/C [35] was 16.9% and the viability, T/C [36] was 20.5%.
